Reference: patent publication US20230391772A1, “METHODS AND COMPOSITIONS FOR TARGETED PROTEIN DEGRADATION” (Ranok Therapeutics (Hangzhou) Co. Ltd., priority 2020, published 2023)

Legend:
[1] = test system: MIA PaCa-2 human pancreatic carcinoma; assay: MIA PaCa-2 CCK-8 proliferation assay; type: cell-based; conditions: MIA PaCa-2 cells
Summary of the method: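 Proliferation of mutant-KRAS(G12C) cells (2 copies in MIA PaCa-2, single copy in NCI-H358/NCI-H23) measured with CCK-8 after treatment across 20 μM–1.02 nM; inhibition expressed relative to vehicle-treated wells after subtracting no-cell background.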

KRAS(G12C) [2] = molecular target: T1, KRAS(G12C) (Homo sapiens, UniProt P01116, G12C); assay: KRAS(G12C)/SOS1 homogeneous time-resolved fluorescence (HTRF) assay; set-up: purchased Cisbio 63ADK000CB16PEG; conditions: absence of GTP, 4° C. for 3 hr, read-out: KRAS (G12C) binding
T1 sequence (P01116 1-188 isoform P01116-2 G12C): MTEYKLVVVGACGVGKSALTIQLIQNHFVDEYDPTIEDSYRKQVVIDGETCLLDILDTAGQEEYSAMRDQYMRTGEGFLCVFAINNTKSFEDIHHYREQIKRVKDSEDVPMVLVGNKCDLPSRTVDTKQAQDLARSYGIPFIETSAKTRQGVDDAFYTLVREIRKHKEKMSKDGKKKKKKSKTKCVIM
Summary of the method: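 Three-hour incubation at 4 °C of 3-fold compound dilutions (lowest 1.02 nM) with KRAS(G12C), SOS1 and detection reagents, GTP absent. Disruption of the KRAS(G12C)/SOS1 complex detected by time-resolved fluorescence.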

KRAS(G12C) [3] = molecular target: T1, KRAS(G12C); assay: KRAS(G12C) Western blot protein degradation assay in LU65A cells; type: cell-based; set-up: LU65A human lung cancer cell line, which expresses KRAS(G12C); host or cells: LU65A; conditions: 6 hr
Summary of the method: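 KRAS levels read by fluorescent Western blot (β-actin as reference) on BCA-normalized lysates. Exposure to a compound concentration range at 37 °C lasted 6 hr in LU65A and 48 hr in MIA PaCa-2; DC50 taken as half-maximal degradation concentration.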

SMILES: C=CC(=O)N1CCN(c2nc(OCCN3CCC(C(=O)N4CCN(Cc5ccc(-n6c(C(=O)NCC(F)(F)F)nnc6-c6cc(C)c(O)cc6O)cc5)CC4)CC3)nc3c2CCN(c2cccc4cccc(Cl)c24)C3)C[C@@H]1CC#N [Compound 251, (S)-4-(4-((4-(1-(2-((4-(4-acryloyl-3-(cyanomethyl)piperazin-1-yl)-7-(8-chloronaphthalen-1-yl)-5,6,7,8-tetrahydropyrido[3,4-d]pyrimidin-2-yl)oxy)ethyl)piperidine-4-carbonyl)piperazin-1-yl)methyl)phenyl)-5-(2,4-dihydroxy-5-methylphenyl)-N-(2,2,2-trifluoroethyl)-4H-1,2,4-triazole-3-carboxamide]
- EC50 ([1]; 72 hr): 100 to 1000 nM
- IC50 (KRAS(G12C) [2]): < 100 nM
- DC50 (KRAS(G12C) [3]): > 1000 nM

SMILES: C=CC(=O)N1CCN(c2nc(OC[C@@H]3C[C@H](N4CCN(Cc5ccc(-n6c(O)nnc6-c6cc(C)c(O)cc6O)cc5)CC4)CN3C)nc3c2CCN(c2cccc4cccc(Cl)c24)C3)C[C@@H]1CC#N [Compound 252, 2-[(2S)-4-[7-(8-chloronaphthalen-1-yl)-2-{[(2S,4S)-4-[4-({4-[3-(2,4-dihydroxy-5-methylphenyl)-5-hydroxy-1,2,4-triazol-4-yl]phenyl}methyl)piperazin-1-yl]-1-methylpyrrolidin-2-yl]methoxy}-5H,6H,8H-pyrido[3,4-d]pyrimidin-4-yl]-1-(prop-2-enoyl)piperazin-2-yl]acetonitrile]
- EC50 ([1]; Homo sapiens, MIA PaCa-2, 72 h): > 1000 nM
- IC50 (KRAS(G12C) [2]): < 100 nM
- DC50 (KRAS(G12C) [3]): > 1000 nM

SMILES: C=CC(=O)N1CCN(c2nc(OC[C@@H]3CC[C@H](CN4CCN(C(=O)C5CCN(Cc6ccc(-n7c(O)nnc7-c7cc(C(C)C)c(O)cc7O)cc6)CC5)CC4)N3C)nc3c2CCN(c2cccc4ccccc24)C3)C[C@@H]1CC#N [Compound 255, 2-[(2S)-4-(2-{[(2S,5R)-5-({4-[1-({4-[3-(2,4-dihydroxy-5-isopropylphenyl)-5-hydroxy-1,2,4-triazol-4-yl]phenyl}methyl)piperidine-4-carbonyl]piperazin-1-yl}methyl)-1-methylpyrrolidin-2-yl]methoxy}-7-(naphthalen-1-yl)-5H,6H,8H-pyri-do[3,4-d]pyrimidin-4-yl)-1-(prop-2-enoyl)piperazin-2-yl] acetonitrile]
- EC50 ([1]; Homo sapiens, MIA PaCa-2, 72 h): 100 to 1000 nM
- IC50 (KRAS(G12C) [2]): < 100 nM
- DC50 (KRAS(G12C) [3]): 100 to 1000 nM

SMILES: C=CC(=O)N1CCN(c2nc(OC[C@@H]3CC[C@H](CN4CCN(C(=O)C5CCN(Cc6ccc(-n7c(O)nnc7-c7cc(C)c(O)cc7O)cc6)CC5)CC4)N3C)nc3c2CCN(c2cccc4ccccc24)C3)C[C@@H]1CC#N [Compound 256, 2-[(2S)-4-(2-{[(2S,5R)-5-({4-[1-({4-[3-(2,4-dihydroxy-5-methylphenyl)-5-hydroxy-1,2,4-triazol-4-yl]phenyl}methyl)piperidine-4-carbonyl]piperazin-1-yl}methyl)-1-methylpyrrolidin-2-yl]methoxy}-7-(naphthalen-1-yl)-5H,6H,8H-pyrido[3,4-d]pyrimidin-4-yl)-1-(prop-2-enoyl)piperazin-2-yl]acetonitrile]
- EC50 ([1]; Homo sapiens, MIA PaCa-2, 72 h): > 1000 nM
- IC50 (KRAS(G12C) [2]): < 100 nM
- DC50 (KRAS(G12C) [3]): > 1000 nM

SMILES: C=CC(=O)N1CCN(c2nc(OC[C@@H]3C[C@H](N4CCC5(CCN(Cc6ccc(-n7c(C(=O)NCC)nnc7-c7cc(C(C)C)c(O)cc7O)cc6)CC5)CC4)CN3C)nc3c2CCN(c2cccc4cccc(Cl)c24)C3)C[C@@H]1CC#N [Compound 259, 4-[4-({9-[(3S,5S)-5-({[7-(8-chloronaphthalen-1-yl)-4-[(3S)-3-(cyanomethyl)-4-(prop-2-enoyl)piperazin-1-yl]-5H,6H,8H-pyrido[3,4-d]pyrimidin-2-yl]oxy}methyl)-1-methylpyrrolidin-3-yl]-3,9-diazaspiro[5.5]undecan-3-yl}methyl)phenyl]-5-(2,4-di hydroxy-5-isopropylphenyl)-N-ethyl-1,2,4-triazole-3-carboxamide]
- EC50 ([1]; Homo sapiens, MIA PaCa-2, 72 h): < 100 nM
- IC50 (KRAS(G12C) [2]): < 100 nM
- DC50 (KRAS(G12C) [3]): < 100 nM

SMILES: C=CC(=O)N1CCN(c2nc(OC[C@@H]3C[C@H](N4CCN(C(=O)C5CCN(Cc6ccc(-n7c(C(=O)NCC(F)(F)F)nnc7-c7cc(C(C)C)c(O)cc7O)cc6)CC5)CC4)CN3C)nc3c2CCN(c2cccc4cccc(Cl)c24)C3)C[C@@H]1CC#N [Compound 261, 4-{4-[(4-{4-[(3S,5S)-5-({[7-(8-chloronaphthalen-1-yl)-4-[(3S)-3-(cyanomethyl)-4-(prop-2-enoyl)piperazin-1-yl]-5H,6H,8H-pyrido[3,4-d]pyrimidin-2-yl]oxy}methyl)-1-methylpyrrolidin-3-yl]piperazine-1-carbonyl}piperidin-1-yl)methyl]phenyl}-5-(2,4-dihydroxy-5-isopropylphenyl)-N-(2,2,2-trifluoroethyl)-1,2,4-triazole-3-carboxamide]
- EC50 ([1]; Homo sapiens, MIA PaCa-2, 72 h): < 100 nM
- IC50 (KRAS(G12C) [2]): < 100 nM
- DC50 (KRAS(G12C) [3]): 100 to 1000 nM

SMILES: C=CC(=O)N1CCN(c2nc(OC[C@@H]3CC[C@H](CN4CCN(Cc5ccc(-n6c(C(=O)NCC)nnc6-c6cc(C(C)C)c(O)cc6O)cc5)CC4)N3C)nc3c2CCN(c2cccc4cccc(Cl)c24)C3)C[C@@H]1CC#N [Compound 263, 4-{4-[(4-{[(2R,5S)-5-({[7-(8-chloronaphthalen-1-yl)-4-[(3S)-3-(cyanomethyl)-4-(prop-2-enoyl)piperazin-1-yl]-5H,6H,8H-pyrido[3,4-d]pyrimidin-2-yl]oxy}methyl)-1-methylpyrrolidin-2-yl]methyl}piperazin-1-yl)methyl]phenyl}-5-(2,4-dihydroxy-5-isopropylphenyl)-N-ethyl-1,2,4-triazole-3-carboxamide]
- EC50 ([1]; Homo sapiens, MIA PaCa-2, 72 h): < 100 nM
- IC50 (KRAS(G12C) [2]): < 100 nM
- DC50 (KRAS(G12C) [3]): > 1000 nM

SMILES: C=CC(=O)N1CCN(c2nc(OC[C@@H]3C[C@H](N4CCN(C(=O)C5CCN(Cc6ccc(-n7c(O)nnc7-c7cc(C(C)C)c(O)cc7O)cc6)CC5)CC4)CN3C)nc3c2CCN(c2cccc4cccc(Cl)c24)C3)C[C@@H]1CC#N [Compound 264, 2-[(2S)-4-[7-(8-chloronaphthalen-1-yl)-2-{[(2S,4S)-4-{4-[1-({4-[3-(2,4-dihydroxy-5-isopropylphenyl)-5-hydroxy-1,2,4-triazol-4-yl]phenyl}methyl)piperidine-4-carbonyl]piperazin-1-yl}-1-methylpyrrolidin-2-yl]methoxy}-5H,6H,8H-pyrido[3,4-d]pyrimidin-4-yl]-1-(prop-2-enoyl)piperazin-2-yl]acetonitrile]
- EC50 ([1]; Homo sapiens, MIA PaCa-2, 72 h): 100 to 1000 nM
- IC50 (KRAS(G12C) [2]): < 100 nM
- DC50 (KRAS(G12C) [3]): 100 to 1000 nM

SMILES: C=CC(=O)N1CCN(c2nc(OC[C@@H]3C[C@H](N4CCN(C(=O)C5CCN(Cc6ccc(-n7c(O)nnc7-c7cc(C)c(O)cc7O)cc6)CC5)CC4)CN3C)nc3c2CCN(c2cccc4cccc(Cl)c24)C3)C[C@@H]1CC#N [Compound 265, 2-[(2S)-4-[7-(8-chloronaphthalen-1-yl)-2-{[(2S,4S)-4-{4-[1-({4-[3-(2,4-dihydroxy-5-methylphenyl)-5-hydroxy-1,2,4-triazol-4-yl]phenyl}methyl)piperidine-4-carbonyl]piperazin-1-yl}-1-methylpyrrolidin-2-yl]methoxy}-5H,6H,8H-pyrido[3,4-d]pyrimidin-4-yl]-1-(prop-2-enoyl)piperazin-2-yl]acetonitrile]
- EC50 ([1]; Homo sapiens, MIA PaCa-2, 72 h): > 1000 nM
- IC50 (KRAS(G12C) [2]): < 100 nM
- DC50 (KRAS(G12C) [3]): > 1000 nM

SMILES: C=CC(=O)N1CCN(c2nc(OCCN3CCN(C(=O)C4CCN(Cc5ccc(-n6c(C(=O)NCC(F)(F)F)nnc6-c6cc(C(C)C)c(O)cc6O)cc5)CC4)C[C@H]3CN(C)C)nc3c2CCN(c2cccc4cccc(Cl)c24)C3)C[C@@H]1CC#N [Compound 266, 4-(4-((4-((R)-4-(2-((4-((S)-4-acryloyl-3-(cyanomethyl)piperazin-1-yl)-7-(8-chloronaphthalen-1-yl)-5,6,7,8-tetrahydropyrido[3,4-d]pyrimidin-2-yl)oxy)ethyl)-3-((dimethylamino)methyl)piperazine-1-carbonyl)piperidin-1-yl)methyl)phenyl)-5-(2,4-dihydroxy-5-isopropylphenyl)-N-(2,2,2-trifluoroethyl)-4H-1,2,4-triazole-3-carboxamide]
- EC50 ([1]; Homo sapiens, MIA PaCa-2, 72 h): > 1000 nM
- IC50 (KRAS(G12C) [2]): 100 to 1000 nM
- DC50 (KRAS(G12C) [3]): 100 to 1000 nM

SMILES: C=CC(=O)N1CCN(c2nc(OC[C@@H]3CC[C@H](CN4CCN(Cc5ccc(-n6c(O)nnc6-c6cc(C(C)C)c(O)cc6O)cc5)CC4)N3C)nc3c2CCN(c2cccc4ccc(F)c(Cl)c24)C3)C[C@@H]1CC#N [Compound 268, 2-[(2S)-4-[7-(8-chloro-7-fluoronaphthalen-1-yl)-2-{[(2S,5R)-5-{[4-({4-[3-(2,4-dihydroxy-5-isopropylphenyl)-5-hydroxy-1,2,4-triazol-4-yl]phenyl}methyl)piperazin-1-yl]methyl}-1-methylpyrrolidin-2-yl]methoxy}-5H,6H,8H-pyrido[3,4-d]pyramidin-4-yl]-1-(prop-2-enoyl)piperazin-2-yl]acetonitrile]
- EC50 ([1]; Homo sapiens, MIA PaCa-2, 72 h): 100 to 1000 nM
- IC50 (KRAS(G12C) [2]): < 100 nM
- DC50 (KRAS(G12C) [3]): > 1000 nM
